Source: patent EP4635500A1, “THERAPEUTIC AGENT FOR BACTERIAL INFECTION” (Sumitomo Pharma Co., Ltd., priority 2022, dated 2024)
≈ marks a conversion by molar mass, not a printed value. Like-named read-outs stand apart in the source and are kept apart here.

Columns and labels:
[1] = tested on: Metallo-β-lactamase producing strains (N = 27); test: MIC50/MIC90 for carbapenemase-producing isolates (Example 5, Table 6); format: cell-based; conditions: metallo-β-lactamase-producing strains; combination: Compound A at a fixed concentration of 4 µg/mL; read-out: MIC90
Enterobacterales = test: MIC, broth microdilution, CDC/FDA Antibiotic Resistance Isolate Bank (Example 7, Tables 8, 11, 12); format: cell-based; conditions: for MIC50: read-out: MIC50; for MIC90: read-out: MIC90; for MIC: read-out: MIC
[2] = 154 strains of Enterobacterales
[3] = carbapenemase-producing Enterobacterales, Metallo-β-lactamase (N = 47)
[4] = carbapenemase-producing Enterobacterales, Serine carbapenemase (N=61)

Question: What does the source list for `CN(C)c1cc(NC(=O)CNC(C)(C)C)c(O)c2c1C[C@H]1C[C@H]3[C@H](N(C)C)C(O)=C(C(N)=O)C(=O)[C@@]3(O)C(O)=C1C2=O` [Tigecycline, tigecycline]?
Answer: MIC90 [1]: 4 µg/mL; MICrange (Enterobacterales; [2]): 0.12 to 4 µg/mL; MIC50 (Enterobacterales; [2]): 0.5 µg/mL (≈ 0.854 µM); MIC80 (Enterobacterales; 154 strains of Enterobacterales, read-out: MIC80): 1 µg/mL (≈ 1.71 µM); MIC90 (Enterobacterales; [2]): 2 µg/mL (≈ 3.41 µM); MIC (Enterobacterales; Enterobacter cloacae, Enterobacter cloacae complex, KUB No. 5661, AR Bank # 164): 0.5 µg/mL (≈ 0.854 µM); MIC (Enterobacterales; Enterobacter cloacae, KUB No. 5660, AR Bank # 163): 4 µg/mL (≈ 6.83 µM); MIC (Enterobacterales; Enterobacter cloacae, KUB No. 5761, AR Bank # 365): 2 µg/mL (≈ 3.41 µM); MIC (Enterobacterales; Enterobacter cloacae, KUB No. 5762, AR Bank # 366): 2 µg/mL (≈ 3.41 µM); MIC (Enterobacterales; Enterobacter cloacae, KUB No. 5763, AR Bank # 367): 0.5 µg/mL (≈ 0.854 µM); MIC (Enterobacterales; Enterobacter cloacae, KUB No. 5778, AR Bank # 432): 1 µg/mL (≈ 1.71 µM); MIC (Enterobacterales; Escherichia coli, KUB No. 5764, AR Bank # 368): 0.25 µg/mL (≈ 0.427 µM); MIC (Enterobacterales; Escherichia coli, KUB No. 5765, AR Bank # 369): 0.25 µg/mL (≈ 0.427 µM); MIC (Enterobacterales; Escherichia coli, KUB No. 5766, AR Bank # 370): 0.25 µg/mL (≈ 0.427 µM); MIC (Enterobacterales; Escherichia coli, KUB No. 5767, AR Bank # 371): 0.25 µg/mL (≈ 0.427 µM); MIC (Enterobacterales; Escherichia coli, KUB No. 5768, AR Bank # 372): 0.5 µg/mL (≈ 0.854 µM); MIC (Enterobacterales; Escherichia coli, KUB No. 5769, AR Bank # 373): 0.5 µg/mL (≈ 0.854 µM); MIC (Enterobacterales; Escherichia coli, KUB No. 5770, AR Bank # 374): 0.5 µg/mL (≈ 0.854 µM); MIC (Enterobacterales; Escherichia coli, KUB No. 5774, AR Bank # 378): 0.25 µg/mL (≈ 0.427 µM); MIC (Enterobacterales; Escherichia coli, KUB No. 5779, AR Bank # 433): 0.5 µg/mL (≈ 0.854 µM); MIC (Enterobacterales; Escherichia coli, KUB No. 5780, AR Bank # 434): 0.5 µg/mL (≈ 0.854 µM); MIC (Enterobacterales; Escherichia coli, KUB No. 5781, AR Bank # 435): 0.5 µg/mL (≈ 0.854 µM); MIC (Enterobacterales; Escherichia, KUB No. 57, AR Bank # 436 (row cut off)): 0.5 µg/mL (≈ 0.854 µM); MIC (Enterobacterales; Klebsiella aerogenes, Enterobacter aerogenes, KUB No. 5777, AR Bank # 431): 1 µg/mL (≈ 1.71 µM); MIC (Enterobacterales; Klebsiella oxytoca, KUB No. 5771, AR Bank # 375): 0.5 µg/mL (≈ 0.854 µM); MIC (Enterobacterales; Klebsiella oxytoca, KUB No. 5776, AR Bank # 380): 2 µg/mL (≈ 3.41 µM); MIC (Enterobacterales; Klebsiella pnemnonine, KUB No. 5758, AR Bank # 362): 1 µg/mL (≈ 1.71 µM); MIC (Enterobacterales; Klebsiella pneumoniae, KUB No. 5757, AR Bank # 361): 1 µg/mL (≈ 1.71 µM); MIC (Enterobacterales; Klebsiella pneumoniae, KUB No. 5759, AR Bank # 363): 0.5 µg/mL (≈ 0.854 µM); MIC (Enterobacterales; Klebsiella pneumoniae, KUB No. 5760, AR Bank # 364): 1 µg/mL (≈ 1.71 µM); MIC (Enterobacterales; Klebsiella pneumoniae, KUB No. 5772, AR Bank # 376): 1 µg/mL (≈ 1.71 µM); MIC (Enterobacterales; Proteus mirabilis, KUB No. 5773, AR Bank # 377): 4 µg/mL (≈ 6.83 µM); MIC (Enterobacterales; Proteus mirabilis, KUB No. 5775, AR Bank # 379): 0.5 µg/mL (≈ 0.854 µM); MIC50 (Enterobacterales; [3]): 0.5 µg/mL (≈ 0.854 µM); MIC90 (Enterobacterales; [3]): 2 µg/mL (≈ 3.41 µM); MIC50 (Enterobacterales; [4]): 1 µg/mL (≈ 1.71 µM); MIC90 (Enterobacterales; [4]): 2 µg/mL (≈ 3.41 µM); MIC90 (Enterobacterales; metallo-β-lactamase-producing strains of Enterobacterales): 2 µg/mL (≈ 3.41 µM)
